Results published in patent publication US9556228B2 (Universitaet Leipzig, priority 2011, dated 2017).
In brackets after ≈: the same amount, converted by molar mass. Peptide text beside a SMILES is read from it.

Experiments:
[1] = tested on: Staphylococcus aureus DSM 1104/ATCC 25923; type: cell-based; settings: for Improvement over Native Sequence (SEQ No. 2) S. aureus ATCC 25923: fold, from MIC in 1/8 MHB
Method: (§1) The minimum inhibitory concentrations (MIC) of the peptides were determined in a double assay of triplicates using a positive control sample (gentamycin) and a negative control sample (0.9% NaCl solution), according to a modified protocol from Wiegand et al. (Wiegand, 2008).
(§2) For this purpose, the peptides were dissolved in water and were diluted in a double dilution series with 1/8 MH (eight-fold diluted Mueller-Hinton-Medium—2.6 g/L, Merck) in sterile 96-well, plates (Greiner Bio-One GmbH) in twelve dilution steps from 128 μg/mL to 62.5 ng/mL. Overnight cultures were adjusted using ⅛ MHB to approximately 1.5×10^7 colony forming units per mL. Of these, 50 μL of peptide solution per well was mixed with 50 μL bacteria solution each to obtain an initial concentration of […] bacteria per well. After 20 hours of incubation at 37′C, the absorption was determined at 595 nm (microplate reader, Wallac Victor3, Perkin Elmer). The minimum inhibitory concentration was identified as the lowest peptide concentration at which no bacterial growth could be detected.
(§3) In the experiment, the antibacterial activity of the peptides according to the invention in relation to the following bacterial strains was analyzed: Pseudomonas aeruginosa PAO1 (wt strain), Pseudomonas aeruginosa DSM 9644, Staphylococcus aureus DSM 1104/ATCC 25923, Staphylococcus aureus ATCC 6247, Escherichia coli UB 1005 (F—, nalA37, metB1) and Escherichia coli ATCC25922.

[2] = tested on: Pseudomonas aeruginosa PAO1 (wt strain); type: cell-based; settings: for Improvement over Native Sequence (SEQ No. 2) P. aeruginosa PAO1 wt: fold, from MIC in 1/8 MHB
Method: as §1, §2, §3

Escherichia coli UB 1005 = experiment: Minimum inhibitory concentration (MIC), broth microdilution; type: cell-based; settings: for Improvement over Native Sequence (SEQ No. 2) E. coli UB1005: fold, from MIC in 1/8 MHB; for MIC E. coli UB1005: 1/8 MHB, Table 4
Method: as §1, §2, §3

[3] = tested on: Escherichia coli ATCC25922; type: cell-based
S. aureus DSM 6247 = type: cell-based, Staphylococcus aureus
Method: as §1, §2, §3

SMILES | MIC S. aureus ATCC 25923 ([1]; DSM 1104) [µg/mL] | Improvement over Native Sequence (SEQ No. 2) S. aureus ATCC 25923 [1] | MIC P. aeruginosa PAO1 wt [2] [µg/mL] | Improvement over Native Sequence (SEQ No. 2) P. aeruginosa PAO1 wt [2] | Improvement over Native Sequence (SEQ No. 2) E. coli UB1005 (Escherichia coli UB 1005) | MIC E. coli UB1005 (Escherichia coli UB 1005) [µg/mL] | MIC S. aureus DSM 1104/ATCC 25923 ([1]; DSM 1104) [µg/mL] | MIC E. coli ATCC 25922 [3] [µg/mL] | MIC S. aureus DSM 6247 (S. aureus DSM 6247) [µg/mL]
CC[C@H](C)[C@H](NC(=O)[C@H](Cc1ccc(O)cc1)NC(=O)[C@@H](NC(=O)[C@@H]1CCCN1C(=O)[C@H](CCCNC(=N)N)NC(=O)[C@H](CC(N)=O)NC(=O)[C@H](Cc1c[nH]c2ccccc12)NC(=O)CN)C(C)C)C(=O)N1CCC[C@H]1C(=O)N[C@@H](CCCNC(=N)N)C(=O)N1CCC[C@H]1C(=O)N[C@@H](CCCNC(=N)N)C(=O)N1CCC[C@H]1C(=O)N1CCC[C@H]1C(=O)N[C@@H](Cc1c[nH]cn1)C(=O)N1CCC[C@H]1C(=O)N[C@@H](CCCNC(=N)N)C(=O)N[C@@H](CC(C)C)C(N)=O [compound 63] (H-GWNRPVYIPRPRPPHPRL-NH2; N-terminus assumed) | 16 (≈ 7.25 µM) | 16 | 16 to 32 | 16-32 | 8 | – | – | – | –
CC[C@H](C)[C@H](NC(=O)[C@H](Cc1ccc(O)cc1)NC(=O)[C@@H](NC(=O)[C@H](CCCNC(=N)N)NC(=O)[C@H](CCCNC(=N)N)NC(=O)[C@H](CC(N)=O)NC(=O)[C@H](CC(N)=O)NC(=O)CN)C(C)C)C(=O)N1CCC[C@H]1C(=O)N[C@@H](CCC(N)=O)C(=O)N1CCC[C@H]1C(=O)N[C@@H](CCCNC(=N)N)C(=O)N1CCC[C@H]1C(=O)N1CCC[C@H]1C(=O)N[C@@H](Cc1c[nH]cn1)C(=O)N1CCC[C@H]1C(=O)N[C@@H](CCCNC(=N)N)C(=O)N[C@@H](CC(C)C)C(N)=O [compound 57] (H-GNNRRVYIPQPRPPHPRL-NH2; N-terminus assumed) | 32 (≈ 14.8 µM) | 8 | 64 (≈ 29.5 µM) | 8 | 1 | 5 (≈ 2.31 µM) | – | – | –
CC[C@H](C)[C@H](NC(=O)[C@H](Cc1ccc(O)cc1)NC(=O)[C@@H](NC(=O)[C@@H]1CCCN1C(=O)[C@H](CC(=O)O)NC(=O)[C@H](CC(N)=O)NC(=O)[C@H](CC(N)=O)NC(=O)CN)C(C)C)C(=O)N1CCC[C@H]1C(=O)N[C@@H](CCC(N)=O)C(=O)N1CCC[C@H]1C(=O)N[C@@H](CCCNC(=N)N)C(=O)N1CCC[C@H]1C(=O)N1CCC[C@H]1C(=O)N[C@@H](Cc1c[nH]cn1)C(=O)N1CCC[C@H]1C(=O)N[C@@H](CCCNC(=N)N)C(=O)N[C@@H](CC(C)C)C(N)=O [compound 91] (H-GNNDPVYIPQPRPPHPRL-NH2; N-terminus assumed) | >60.5 | – | 121.0 (≈ 58.6 µM) | 4 | <0.25 | >19.4 | – | – | –
CC[C@H](C)[C@H](NC(=O)[C@H](Cc1ccc(O)cc1)NC(=O)[C@@H](NC(=O)[C@@H]1CCCN1C(=O)[C@H](CCCNC(=N)N)NC(=O)[C@H](CC(N)=O)NC(=O)[C@H](CC(N)=O)NC(=O)CN)C(C)C)C(=O)N1CCC[C@H]1C(=O)N[C@@H](CCC(N)=O)C(=O)N1CCC[C@H]1C(=O)N[C@@H](CCCNC(=N)N)C(=O)N1CCC[C@H]1C(=O)N1CCC[C@H]1C(=O)N[C@@H](Cc1c[nH]cn1)C(=O)N1CCC[C@H]1C(=O)N[C@@H](CCCNC(=N)N)C(=O)N[C@@H](CC(C)C)C(N)=O [compound 90] (H-GNNRPVYIPQPRPPHPRL-NH2; N-terminus assumed) | >125 | – | 250 (≈ 119 µM) | 2 | 4 | 1.25 (≈ 0.593 µM) | >125 | 2 (≈ 0.949 µM) | 64 (≈ 30.4 µM)
CC[C@H](C)[C@H](NC(=O)[C@H](Cc1ccc(O)cc1)NC(=O)[C@@H](NC(=O)[C@@H]1CCCN1C(=O)[C@H](CCCNC(=N)N)NC(=O)[C@H](CC(N)=O)NC(=O)[C@H](CC(N)=O)NC(=O)CN)C(C)C)C(=O)N1CCC[C@H]1C(=O)N[C@@H](CCC(N)=O)C(=O)N1CCC[C@H]1C(=O)N[C@@H](CCCNC(=N)N)C(=O)N[C@@H](CCCNC(=N)N)C(=O)N1CCC[C@H]1C(=O)N[C@@H](Cc1c[nH]cn1)C(=O)N1CCC[C@H]1C(=O)N[C@@H](CCCNC(=N)N)C(=O)N[C@@H](CC(C)C)C(N)=O [compound 59] (H-GNNRPVYIPQPRRPHPRL-NH2; N-terminus assumed) | 31 (≈ 14.3 µM) | 8 | 125 (≈ 57.7 µM) | 4 | 1 | 10 (≈ 4.62 µM) | – | – | –
CC[C@H](C)[C@H](NC(=O)[C@H](Cc1ccc(O)cc1)NC(=O)[C@@H](NC(=O)[C@@H]1CCCN1C(=O)[C@H](CCCNC(=N)N)NC(=O)[C@H](CC(N)=O)NC(=O)[C@H](CC(N)=O)NC(=O)CN)C(C)C)C(=O)N1CCC[C@H]1C(=O)N[C@@H](CCC(N)=O)C(=O)N1CCC[C@H]1C(=O)N[C@@H](CCCNC(=N)N)C(=O)N1CCC[C@H]1C(=O)N[C@@H](CS)C(=O)N[C@@H](Cc1c[nH]cn1)C(=O)N1CCC[C@H]1C(=O)N[C@@H](CCCNC(=N)N)C(=O)N[C@@H](CC(C)C)C(N)=O [compound 60] (H-GNNRPVYIPQPRPCHPRL-NH2; N-terminus assumed) | 16 (≈ 7.57 µM) | 16 | 250 (≈ 118 µM) | 2 | 0 | 20 (≈ 9.46 µM) | – | – | –
CC(C)C[C@H](NC(=O)[C@H](CCCNC(=N)N)NC(=O)[C@@H]1CCCN1C(=O)[C@H](Cc1c[nH]cn1)NC(=O)[C@@H]1CCCN1C(=O)[C@@H]1CCCN1C(=O)[C@H](CCCNC(=N)N)NC(=O)[C@@H]1CCCN1C(=O)[C@H](CCC(N)=O)NC(=O)[C@@H]1CCCN1C(=O)[C@H](CCCNC(=N)N)NC(=O)[C@H](Cc1ccc(O)cc1)NC(=O)[C@@H](NC(=O)[C@@H]1CCCN1C(=O)[C@H](CCCNC(=N)N)NC(=O)[C@H](CC(N)=O)NC(=O)[C@H](CC(N)=O)NC(=O)CN)C(C)C)C(N)=O [compound 58] (H-GNNRPVYRPQPRPPHPRL-NH2; N-terminus assumed) | 63 (≈ 29.3 µM) | 4 | 64 (≈ 29.8 µM) | 8 | 16 | 0.313 (≈ 0.146 µM) | – | – | –
CC[C@H](C)[C@H](NC(=O)[C@H](Cc1ccc(O)cc1)NC(=O)[C@@H](NC(=O)[C@@H]1CCCN1C(=O)[C@H](CCCNC(=N)N)NC(=O)[C@H](CC(N)=O)NC(=O)[C@H](Cc1c[nH]c2ccccc12)NC(=O)CN)C(C)C)C(=O)N1CCC[C@H]1C(=O)N[C@@H](CCC(N)=O)C(=O)N1CCC[C@H]1C(=O)N[C@@H](CCCNC(=N)N)C(=O)N1CCC[C@H]1C(=O)N1CCC[C@H]1C(=O)N[C@@H](Cc1c[nH]cn1)C(=O)N1CCC[C@H]1C(=O)N[C@@H](CCCNC(=N)N)C(=O)N[C@@H](CC(C)C)C(N)=O [compound 54] (H-GWNRPVYIPQPRPPHPRL-NH2; N-terminus assumed) | 63 (≈ 28.9 µM) | 4 | 64 (≈ 29.4 µM) | 8 | 4 | 1.25 (≈ 0.574 µM) | – | – | –
